Data published in US20230391776A1, “AMIDE OXAZOLE COMPOUND” (MEDSHINE DISCOVERY INC., priority 2020, published 2023).

Tests used:
human BTK = molecular target: T1, human BTK (Homo sapiens, UniProt Q06187); assay: In vitro BTK kinase activity, 33P isotope-labeled kinase assay; format: biochemical
T1 construct: purchased Reaction Biology Corp
Description: The IC50 values were determined using ^33P isotope-labeled kinase activity assay (Reaction Biology Corp) to evaluate the inhibitory ability of the tested compounds on human BTK.
Buffer conditions: 20 mM Hepes (pH 7.5), 10 mM MgCl2, 1 mM EGTA, 0.02% Brij35, 0.02 mg/mL BSA, 0.1 mM Na3VO4, 2 mM DTT, 1% DMSO.
Test procedure: At room temperature, the tested compound was dissolved in DMSO and a 10 mM solution was prepared for use. The substrate was dissolved in a newly prepared buffer solution, and the BTK kinase was added thereto and mixed evenly. The compound dissolved in DMSO was added to the kinase reaction mixture through Echo 550 (Acoustic technology; Nanoliter range). After incubation for 20 minutes at room temperature, ^33P-ATP was added to initiate the reaction. The reaction was carried out at room temperature for 2 hours, and the radioactivity of the reaction solution drop was detected by filtration-binding method with P81 ion exchange filter paper. The kinase activity data were expressed by comparing the kinase activity of the group containing the tested compound with the kinase activity of the blank group (only containing DMSO), and the IC50 value was obtained by curve fitting by Prism4 software (GraphPad), the experimental results were shown in Table 3.

[1] = tested on: TNF-α production in THP-1 cells; assay: TNF-α ELISA in LPS-stimulated THP-1 cells; format: cell-based; details: Homo sapiens, TNF-α in supernatant, 150 ng/mL LPS, 18 hours
Description: THP-1 human acute single cell leukemia cells were purchased from ATCC (Cat #TIB-202) and cultured at 37° C. in 5% CO2 incubator. The composition of medium was RPMI1640 (Gibco, Cat #22400-105), and the supplementary compositions were 10% FBS (Gibco, Cat #10091148); 1% PenStrep (Gibco, Cat #15140); 0.05 mM β-mercaptoethanol (Sigma, Cat #M6250).
TNF-α Elisa kit was used to detect the content of TNF-α in cell culture supernatant samples. TNF-α was produced by stimulating THP-1 cells with 150 ng/mL LPS (Sigma, Cat #L6529).
THP-1 cells cultured normally at logarithmic growth period were seeded in a 96-well plate (Corning #3599) at a certain concentration (1*10^5/100 μL) and then put into a cell incubator for incubation. After two hours, 16.7 μL of different concentrations of the compound to be tested (8*final concentration) were added and incubated in an incubator. After one hour, 16.7 μL of 1200 ng/mL LPS was added and incubated in an incubator. After 18 hours, the culture supernatant samples were collected by centrifugation, and the content of TNF-α could be detected by TNF-α Elisa kit. Finally, OD signals (OD450-OD570) were read on envision board reader.
The OD450-OD570 signal value was converted into a percentage inhibition rate.
Inhibition rate %=(ZPE−sample)/(ZPE−HPE)*100.
“HPE” referred to the OD450-OD570 signal value of the control well without LPS stimulated cells, and “ZPE” referred to the OD450-OD570 signal value of the control well with LPS stimulated cells. The IC50 value of the compound was calculated by XLFit in the excel add-in.
Y=Bottom+(Top−Bottom)/(1+(IC50/X)^HillSlope). Equation: […]

OCI-LY3 cell line = assay: OCI-LY3 cell proliferation (CTG); format: cell-based; details: Homo sapiens, 72 hours
Description: The tumor cell line OCI-LY3 was used to detect the effect of the compound of the disclosure on inhibiting tumor cell proliferation in vitro.
The tumor cell line used in this experiment was provided by Nanjing Cobioer Biotechnology Co., Ltd. See Table 6 below for specific information.
The OCI-LY3 cell line was cultured in the corresponding medium at 37° C. and 5% CO2, and the logarithmic growth period cells were used for experimental planking. The cells were collected and centrifuged at 800 rpm for 5 minutes, and the culture medium was re-suspended and spread in a 96-well plate. After being cultured overnight in 37° C., 5% CO2 incubator, drugs with different concentration gradients (10 μL of prepared diluent of test compound was added) were added, and incubated in 37° C., 5% CO2 incubator for 72 hours. The cell culture plate was incubated with CTG reagent at room temperature in the dark for 30 minutes and return to room temperature. CTG solution was added into the biosafety cabinet in the dark 100 μL/well, and was shaken and mixed evenly on plate shaker in the dark for 2 minutes, and incubated at room temperature in the dark for 10 minutes. The luminous value was read and recorded with Perkin Elmer Envision instrument.
The luminous value of the blank control group was subtracted from the luminous value measured at each drug concentration, the ratio of this value to DMSO group was taken as the cell inhibition rate (%). GraphPad software was used, the logarithm of drug concentration (log drug concentration) versus inhibition rate was plotted, and the IC50 value and 95% confidence value were automatically fitted and calculated by log (inhibitor) vs. response-variable slop (four parameters) algorithm of nonlinear regression by software.

Pharmacokinetics of rats = format: in vivo; details: rat, plasma, SD male rats; for Vd / AUC(0-t) / clearance / half-life: IV 1 mg/kg; for Vd: read-out: Apparent volume of distribution Vdss; for AUC(0-t): read-out: Area under the plasma concentration-time curve AUC0-24h; for clearance: read-out: Clearance rate CL; for half-life: read-out: Half-life T1/2 (converted); for bioavailability / AUC / Cmax / Tmax: PO 3 mg/kg; for AUC: read-out: Area under the plasma concentration-time curve AUC; for Cmax: read-out: Peak concentration Cmax; for Tmax: read-out: Peak time Tmax
Description: The purpose of this experiment was to study the pharmacokinetics of the tested compound in the plasma of SD male rats after intravenous injection and oral administration.
SD male rats from 7 to 10 weeks old were selected, and the dosage of intravenous and oral administration was 1 mg/kg and 3 mg/kg respectively. Rats in the gavage group fasted for at least 12 hours before administration, and feeding was resumed after administration for 4 hours. Intravenous injection group was free to eat and drink during the whole experiment.
Drug preparation operation: in the intravenous injection group, the compound was weighed and dissolved with 5% DMSO/10% Solutol/85% H2O, and a clear solution of 0.5 mg/mL was prepared by vortex, which was filtered by a 0.22 m microporous membrane for later use. In the gavage group, the compound was dissolved in 5% DMSO/10% Solutol/85% H2O, and a uniform suspension was prepared by vortex. On the day of the experiment, the animals in the intravenous group were given the corresponding compound by a single injection through the tail vein, and the dosage volume was 2 mL/kg. In the oral group, the corresponding compounds were given by single gavage, and the dosage volume was 5 mL/kg. The animals before administration were weighed, and the administration volume was calculated according to the weight. The sampling time was 0.083 (injection group), 0.25, 0.5, 1, 2, 4, 6, 8, 10 (gavage group), 24 hours. Approximately 250 μL of whole blood was collected through the jugular vein at each time point for plasma preparation for concentration determination by high performance liquid chromatography-tandem mass spectrometry (LC-MS/MS). All animals were euthanized by CO2 anesthesia after collecting PK samples at the last time point. The non-atrioventricular model of WinnonLin™ Version 6.3 (Pharsight, Mountain View, CA) pharmacokinetic software was used to process the plasma concentration, and the pharmacokinetic parameters were calculated by linear logarithmic trapezoid method.

T1 sequence (Q06187 whole entry): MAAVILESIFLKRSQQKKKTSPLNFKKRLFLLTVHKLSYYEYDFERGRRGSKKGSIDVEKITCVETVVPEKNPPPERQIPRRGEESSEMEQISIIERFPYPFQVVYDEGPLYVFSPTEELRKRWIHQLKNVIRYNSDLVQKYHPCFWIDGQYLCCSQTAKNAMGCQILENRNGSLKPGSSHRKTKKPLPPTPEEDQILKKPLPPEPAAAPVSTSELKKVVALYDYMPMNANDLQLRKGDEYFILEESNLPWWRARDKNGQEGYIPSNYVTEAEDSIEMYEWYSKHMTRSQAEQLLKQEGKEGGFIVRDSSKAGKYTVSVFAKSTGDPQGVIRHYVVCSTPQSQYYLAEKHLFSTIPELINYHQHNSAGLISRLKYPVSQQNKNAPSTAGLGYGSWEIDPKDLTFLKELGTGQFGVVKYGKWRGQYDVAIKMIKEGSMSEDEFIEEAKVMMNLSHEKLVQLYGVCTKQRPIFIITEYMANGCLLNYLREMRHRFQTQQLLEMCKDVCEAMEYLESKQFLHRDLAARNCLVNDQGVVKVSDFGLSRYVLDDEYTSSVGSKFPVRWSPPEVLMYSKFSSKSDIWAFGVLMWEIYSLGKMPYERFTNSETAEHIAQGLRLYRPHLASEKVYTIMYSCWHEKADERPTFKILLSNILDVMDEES

IC50 (human BTK)	IC50 [1]	IC50 (OCI-LY3 cell line)	Vd (Pharmacokinetics of rats)	AUC(0-t) (Pharmacokinetics of rats)	clearance (Pharmacokinetics of rats)	half-life (Pharmacokinetics of rats)	bioavailability (Pharmacokinetics of rats)	AUC (Pharmacokinetics of rats)	Cmax (Pharmacokinetics of rats)	Tmax (Pharmacokinetics of rats)	Structure (SMILES)
0.0201 µM	0.06 µM	0.121 µM	0.2 L/kg	35.5 µM·h	0.066 L/h/kg	2.5 h	55%	59.1 µM·h	10.1 µM	1.3 h	Cc1cc(-c2nc(C(=O)Nc3cn4cc(C(C)(C)O)nc4cc3-c3ccccc3)co2)ccn1 [WX009]
0.0029 µM	0.0419 µM	0.048 µM	0.3 L/kg	8.84 µM·h	0.24 L/h/kg	1.4 h	38%	10.2 µM·h	4.33 µM	0.3 h	CC(C)(O)c1cn2cc(NC(=O)c3coc(-c4ccnc(N)c4F)n3)c(-c3ccccc3)cc2n1 [WX027]
0.0052 µM	0.0159 µM	0.018 µM	0.8 L/kg	5.51 µM·h	0.42 L/h/kg	4.1 h	29%	4.77 µM·h	1.02 µM	0.8 h	CC(C)(O)c1cn2cc(NC(=O)c3coc(-c4ccnc(N)c4)n3)c(-c3ccccc3)cc2n1 [WX017]
